Data published in PubChem BioAssay (NCI).
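1) Cells in 96-well plates. 2) Compound, 48 h, 5 concentrations. 3) Linear interpolation between surrounding doses. 4) Unreached endpoint = highest concentration. TGI denotes the concentration required for complete inhibition of growth.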

What was measured:
Experiment in all cases: inhibition of tumour cell growth, NCI panel, 48 h
BT-549 breast = tested on: BT-549 breast
M14 melanoma = tested on: M14 melanoma
MALME-3M melanoma = tested on: MALME-3M melanoma
MOLT-4 leukemia = tested on: MOLT-4 leukemia
NCI/ADR-RES ovarian = tested on: NCI/ADR-RES ovarian
SK-OV-3 ovarian = tested on: SK-OV-3 ovarian
SNB-75 CNS = tested on: SNB-75 CNS
SR leukemia = tested on: SR leukemia
T-47D breast = tested on: T-47D breast
UACC-257 melanoma = tested on: UACC-257 melanoma
UACC-62 melanoma = tested on: UACC-62 melanoma

Measured: TGI

CSc1nc(N)c2c(-c3ccccc3)c3c(nc2n1)CCCC3
> 100 µM: all assays above
